From article PMC3109911 (The Journal of neuroscience : the official journal of the …, 2011)
Where a name gives a salt, the structure may show the parent alone.

Legend:
[1] = tested on: Schaffer-CA1 synaptic transmission in dorsal hippocampal slices; assay: Field EPSP recordings from dorsal hippocampal slices; details: SKF 38393 20 nM, n=3
[2] = tested on: Schaffer-CA1 synaptic transmission in rat ventral hippocampal slices; assay: Field EPSP recordings from ventral hippocampal slices
D1 receptors = assay: ERK1/2 phosphorylation in transfected CHO cells expressing D1 receptors
D5 receptors = assay: ERK1/2 phosphorylation in transfected CHO cells expressing D5 receptors
D1-like receptors = details: ref Hersi et al., 1995; cited from earlier work
galanin receptor [3] = details: ref Lang et al., 2007; cited from earlier work
galanin receptor [4] = details: ref Lang et al., 2007; cited from earlier work; remark: listed apart in the source

Compound: Oc1cc2c(cc1O)C(c1ccccc1)CNCC2 (racemic) [SKF 38393, (±)-1-Phenyl-2,3,4,5-tetrahydro-(1H)-3-benzazepine-7,8-diol hydrobromide]
- effect on fEPSP slope [1]: devoid of any effect on fEPSP slope
- effect on synaptic transmission (fEPSP) ([2]; SKF 38393 20 nM after atropine (5 µM, at least 30 min before)): did not significantly affect synaptic transmission
- effect on the slope of fEPSP ([2]; SKF 38393 20 nM alone, n=7): virtually devoid of effect

Compound: Br.Oc1cc2c(c(Cl)c1O)CCNCC2c1ccccc1 (racemic) [SKF 81297]
- ERK1/2 phosphorylation, time course (D1 receptors; SKF 81297 (text 50 nM; Fig. 4 legend 70 nM), cells expressing D1): time-dependently induced ERK1/2 phosphorylation
- ERK1/2 phosphorylation, time course (D5 receptors; SKF 81297 50 nM, cells expressing D5): time-dependently induced ERK1/2 phosphorylation

Compound: CN1[C@@H]2CC[C@H]1C[C@@H](OC(=O)C(CO)c1ccccc1)C2 (some centres unmarked) [atropine]
- effect on fEPSP ([2]; atropine 5 µM by itself): did not significantly modify fEPSP

Compound: NCCc1ccc(O)c(O)c1 [dopamine]
- effect on hippocampal ACh release (D1-like receptors): facilitates hippocampal ACh release by acting on D1-like receptors

Compound: galanin (1–13)-Pro-Pro-(Ala-Leu-)2Ala amide [M40]
- antagonism of SKF 81297-induced ERK1/2 phosphorylation (D1 receptors; antagonist 10 µM, 20 min prior, SKF 81297 70 nM, 5 min, cells only expressing D1): not modified by the presence of M40
- agonism in cell lines (galanin receptor [3]): full agonists in some cell lines
- antagonism of SKF 81297-induced ERK1/2 phosphorylation (D5 receptors; antagonist 10 µM, 20 min prior, SKF 81297 70 nM, 5 min, cells only expressing D5): not modified by the presence of M40
- antagonism in vivo (galanin receptor [4]): clearly antagonists in vivo
